Each structure is given as a SMILES string.

The source of these data is PMC2759397 (Bioorganic & medicinal chemistry, 2009).

Assay [1] has as its target T1, μ opioid receptors (Cavia porcellus, UniProt A0ACM8Q262). Further details: species or system guinea pig. Conditions: read-out: Agonist activity (% inhibition of contraction at 1 µM), GPI/LMMP.
Another assay deals with δ opioid receptors (Mus musculus, UniProt P32300). The note with it: read-out: Agonist activity (% inhibition of contraction at 1 µM), MVD.
In assay [2] the target is T1, μ opioid receptors. Further details: species or system guinea pig.
In the next assay the target is delta opioid receptors (Mus musculus, UniProt P32300).
Another assay concerns the target opioid receptors. As to the kind of experiment: Radioligand competition assay, [3H]diprenorphine, rat brain membranes. In kind it is binding. The note with it: data not shown. (In a radioligand displacement assay an active substance lowers the binding of a labelled ligand.)

T1 sequence (A0ACM8Q262 1-400): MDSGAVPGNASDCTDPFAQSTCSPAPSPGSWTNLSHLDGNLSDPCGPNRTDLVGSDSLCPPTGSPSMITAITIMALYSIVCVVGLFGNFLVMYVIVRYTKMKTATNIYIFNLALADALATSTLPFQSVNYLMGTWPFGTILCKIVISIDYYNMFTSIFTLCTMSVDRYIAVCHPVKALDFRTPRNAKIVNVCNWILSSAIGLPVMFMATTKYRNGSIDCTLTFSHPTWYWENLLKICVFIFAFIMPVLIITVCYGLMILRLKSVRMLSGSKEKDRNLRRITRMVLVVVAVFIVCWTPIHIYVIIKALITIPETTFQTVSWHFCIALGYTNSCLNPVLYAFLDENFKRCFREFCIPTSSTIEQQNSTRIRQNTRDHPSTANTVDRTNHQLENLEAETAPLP
δ opioid receptors, sequence (P32300 whole entry): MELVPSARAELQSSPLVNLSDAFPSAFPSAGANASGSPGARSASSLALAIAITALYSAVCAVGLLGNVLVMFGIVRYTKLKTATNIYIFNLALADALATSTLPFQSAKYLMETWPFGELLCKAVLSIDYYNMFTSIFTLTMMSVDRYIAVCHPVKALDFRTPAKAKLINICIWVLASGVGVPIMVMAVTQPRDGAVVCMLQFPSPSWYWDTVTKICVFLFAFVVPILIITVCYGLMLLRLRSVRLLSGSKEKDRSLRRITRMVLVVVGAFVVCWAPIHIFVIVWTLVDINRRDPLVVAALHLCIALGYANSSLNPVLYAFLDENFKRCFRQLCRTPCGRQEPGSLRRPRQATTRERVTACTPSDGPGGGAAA
delta opioid receptors, sequence (P32300 whole entry): as above

In the case of `Cc1c(CC(=O)O)c2ccccc2n1C1CCN(C)CC1` [Compound 9a, [2-methyl-1-(1-methyl-piperidin-4-yl)-1H-indol-3-yl]-acetic acid], the inhibition at 1 µM amounted to 0.7% on μ opioid receptors [1] and 17.9% on δ opioid receptors. Besides, on μ opioid receptors [2], the “PL-017 Antagonism at 1 µM in the GPI/LMMP” value is reported as “none at 1 µM”. At delta opioid receptors, the “DPDPE Antagonism at 1 µM in the MVD” value is “none at 1 µM”.

As to `Cc1c(CC(=O)O)c2ccccc2n1C1CCN(CCc2ccccc2)CC1` [Compound 9c, [2-methyl-1-(1-phenethyl-piperidin-4-yl)-1H-indol-3-yl]-acetic acid], the inhibition at 1 µM at μ opioid receptors [1] was 3.1%; at δ opioid receptors, 19.5%. Also, the “PL-017 Antagonism at 1 µM in the GPI/LMMP” value on μ opioid receptors [2] is recorded as “none at 1 µM”. Also, the “DPDPE Antagonism at 1 µM in the MVD” value at delta opioid receptors was “none at 1 µM”. The “inhibition constants against binding of [3H]diprenorphine” value at opioid receptors is given as “micromolar range”.

In the case of `COc1ccc2c(c1)c(CC(=O)O)c(C)n2C1CCN(C)CC1` [Compound 9d, [5-methoxy-2-methyl-1-(1-methyl-piperidin-4-yl)-1H-indol-3-yl]-acetic acid], the figures for the inhibition at 1 µM on μ opioid receptors [1] and at δ opioid receptors were 0% and 2.8%, respectively. Further, the “PL-017 Antagonism at 1 µM in the GPI/LMMP” value at μ opioid receptors [2] was “none at 1 µM”. Moreover, the “DPDPE Antagonism at 1 µM in the MVD” value on delta opioid receptors is “none at 1 µM”.

As for `COc1ccc2c(c1)c(CC(=O)O)c(C)n2C1CCN(CCc2ccccc2)CC1` [Compound 9f, [5-methoxy-2-methyl-1-(1-phenethyl-piperidin-4-yl)-1H-indol-3-yl]-acetic acid], the results for the inhibition at 1 µM at μ opioid receptors [1] and on δ opioid receptors were 6% and 0%, respectively. Further, at μ opioid receptors [2], the “PL-017 Antagonism at 1 µM in the GPI/LMMP” value was “none at 1 µM”. Also, on delta opioid receptors, the “DPDPE Antagonism at 1 µM in the MVD” value was “none at 1 µM”. Besides, the “inhibition constants against binding of [3H]diprenorphine” value at opioid receptors is reported as “micromolar range”.
